Read-outs that look alike come from different tables or passages of the source.
Assays:
Calpain 3 [1] = experiment: Calpain 3 expression in mouse muscle tissue, CT26 cachexia model; assay type: in vivo, Balb/c mice; settings: CT26 Balb/c cachexia model, 21 days, G6 IV 200 mpk
From the text: (§1) In FIG. 47, each group represents the following.

[2] = target: T1, human recombinant cyclooxygenase COX-2 (Homo sapiens, UniProt P35354); experiment: Inhibition of COX2 (Ampliflu Red spectrofluorescence); assay type: biochemical; settings: 10 μM, compared with untreated group
T1 construct: host or cells: insect Sf21 cells
T1 sequence (P35354 18-604): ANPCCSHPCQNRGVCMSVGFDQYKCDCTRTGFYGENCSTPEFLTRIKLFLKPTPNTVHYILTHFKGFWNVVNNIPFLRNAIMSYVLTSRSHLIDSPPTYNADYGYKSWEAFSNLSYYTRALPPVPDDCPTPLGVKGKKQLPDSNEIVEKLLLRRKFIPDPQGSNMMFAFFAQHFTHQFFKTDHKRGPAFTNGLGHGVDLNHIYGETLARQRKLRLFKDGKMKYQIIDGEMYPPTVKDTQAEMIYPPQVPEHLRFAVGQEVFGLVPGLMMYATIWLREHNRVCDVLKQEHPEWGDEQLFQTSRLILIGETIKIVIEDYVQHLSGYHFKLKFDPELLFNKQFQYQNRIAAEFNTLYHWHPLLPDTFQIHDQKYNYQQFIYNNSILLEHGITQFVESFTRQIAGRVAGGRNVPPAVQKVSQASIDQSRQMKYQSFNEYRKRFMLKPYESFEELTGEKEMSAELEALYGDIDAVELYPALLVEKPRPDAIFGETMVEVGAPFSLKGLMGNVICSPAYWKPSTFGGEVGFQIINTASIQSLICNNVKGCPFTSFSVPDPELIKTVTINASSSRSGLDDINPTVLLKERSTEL
Experimental: At this time, the concentration of the calcium salt contained in the buffer solution was set to 10 μM. As an enzyme, 34 U/mL of human recombinant cyclooxygenase COX-2 expressed in insect Sf21 cells was further added to the buffer solution, and pre-reacted at 25° C. for 15 minutes. In addition, 3 μM arachidonic acid and 100 μM Ampliflu Red were added and reacted at 25° C. for 3 minutes. The amount of Resofurin produced in the reaction process was measured at 535 nm/590 nm by a spectrofluorescence method, and the inhibitory effect on COX2 was confirmed by comparing with the calcium salt untreated group.

Calpain 3 [3] = experiment: Calpain 3 expression (Western blot) in CCM-treated C2C12 myotubes; assay type: cell-based, mouse
Experimental: (§2) C2C12 cell line was dispensed into a 6-well plate at 4.0×10^5 cells/well and cultured in DMEM medium containing 10% fetal bovine serum (FBS) under 37° C. and 5% CO2 conditions for one day. When the cell density reached about 80%, the medium was replaced with a differentiation medium and the cells were cultured for additional 3 days. […] After culturing for 72 hours, the cells were collected and analyzed for PDK-4, which is a target marker, by Western blot and the results are summarized in FIG. 6.
The experiment was performed in the same manner as in Experimental Example 3-1, except that Calpain 3 was analyzed as a target marker for Western blot, and the results are summarized in FIG. 7.
(§3) A C2C12 cell line was dispensed into a 6-well plate at 4.0×10^5 cells/well, and then cultured in DMEM medium containing 10% fetal bovine serum (FBS) under 37° C. and 5% CO2 conditions for one day. When the cell density reached about 80%, the medium was replaced with a differentiation medium and the cells were cultured for additional 3 days.

C2C12 myotube cells = experiment: Myotube diameter (crystal violet, Image J) of CCM-treated C2C12 myotubes; assay type: cell-based, mouse; settings: C2C12 myotubes + CCM 1:1, 72 hours
Experimental: A C2C12 cell line was dispensed into a 6-well plate at 4.0×10^5 cells/well, and then cultured in DMEM medium containing 10% fetal bovine serum (FBS) under 37° C. and 5% CO2 conditions for one day. When the cell density reached about 80%, the medium was replaced with a differentiation medium and the cells were cultured for additional 3 days. […] The myotube diameter was measured using Image J from the above image, and the change in myotube cell diameter is summarized in FIG. 17B. A C2C12 cell line was dispensed into a 6-well plate at 4.0×10^5 cells/well, and then cultured in DMEM medium containing 10% fetal bovine serum (FBS) under 37° C. and 5% CO2 conditions for one day. When the cell density reached about 80%, the medium was replaced with a differentiation medium and the cells were cultured for additional 3 days. […] The myotube diameter was measured using Image J from the above images, and the changes in myotube cell diameter are summarized in FIG. 24B.

MuRF1 = MuRF1 expression in mouse muscle tissue, CT26 cachexia model; assay type: in vivo, Balb/c mice; settings: CT26 Balb/c cachexia model, 21 days; G4 PO 200 mpk, G5 IV 100 mpk, G6 IV 200 mpk; vs vehicle control G2
GDF-15 = GDF-15 expression (Western blot) in CCM-treated C2C12 myotubes; assay type: cell-based, mouse; settings: C2C12 myotubes + CCM, 72 hours; comparison experiment with components alone and in combination
Experimental: as §2
The analysis was performed in the same manner as in Experimental Example 4-1 except for analyzing GDF-15 as a target marker for a Western blot, and the results are summarized in FIGS. 8 and 9.
The analysis was performed in the same manner as in Experimental Example 3-1 except for analyzing PDK-4 as a target marker for Western blot, and the results are summarized in FIGS. 10 and 11.
as §3

PDK-4 = settings: CT26 Balb/c cachexia model, 21 days
From the text: The mice were sacrificed, and the skeletal muscle in the quadriceps was extracted during autopsy, and tissue was homogenized, and proteins were extracted through RIPA lysis buffer, followed by Western blot analysis.
as §1

Myogenin [4] = experiment: Myogenin expression (Western blot) in CCM-treated C2C12 myotubes; assay type: cell-based, mouse; settings: 72 hours, compared to other experimental groups (components alone and in combination)
Experimental: A C2C12 cell line was dispensed into a 6-well plate at 4.0×10^5 cells/well, and then cultured in DMEM medium containing 10% fetal bovine serum (FBS) under 37° C. and 5% CO2 conditions for one day. When the cell density reached about 80%, the medium was replaced with a differentiation medium and the cells were cultured for additional 3 days. After confirming completion of differentiation of the cells, the cells were treated with a mixture, in which the differentiation medium and cancer-cell conditioned medium (CCM) were mixed at a 1:1 ratio, to form a control group, and simultaneously, a test group was set up by treating with the calcium salts of Preparation Examples 1 to 3 according to three predetermined concentrations.
as §3

Myogenin [5] = experiment: Myogenin expression in mouse muscle tissue, CT26 cachexia model; assay type: in vivo, Balb/c mice; settings: CT26 Balb/c cachexia model, 21 days
[6] = G4 PO 200 mpk, G5 IV 100 mpk, G6 IV 200 mpk, vs vehicle control G2

O=C([O-])C(Cl)Cl.O=C1OC(C(O)CO)C([O-])=C1O.[Ca+2] (centres unmarked) [Preparation Example 1, calcium salts of ascorbic acid and dichloroacetic acid]
expression level of Calpain 3 in quadriceps (Calpain 3 [1]; G4 PO 200 mpk, G5 IV 100 mpk, vs vehicle control G2): increase in the expression level
expression level of Calpain 3 in quadriceps (Calpain 3 [1]; compared to G3 megestrol 125 mpk): excellent effect of increasing the expression level
inhibitory effect on COX2 [2]: 74%
expression level of Calpain 3 (Calpain 3 [3]; C2C12 myotubes + CCM, 72 hours, compared to other experimental groups (components alone and in combination)): higher expression level
expression level of Calpain 3 (Calpain 3 [3]; C2C12 myotubes, differentiation medium:CCM 1:1, 72 hours, three predetermined concentrations, vs CCM control): decrease in expression was inhibited
diameter of myotube cells (C2C12 myotube cells; predetermined concentration, compared to CCM): increased the diameter up to a level similar to that of the normal control group (UCM)
concentration from which the diameter reduction of myotubes was significantly inhibited (C2C12 myotube cells; three predetermined concentrations): ≥ 10 µM
expression level of MuRF1 in quadriceps (MuRF1): decrease in the expression levels
expression of GDF-15 (GDF-15): inhibited
expression level of PDK-4 in quadriceps (PDK-4; [6]): decrease in the expression level
expression level of PDK-4 in quadriceps (PDK-4; G4 to G6, compared to G3 megestrol 125 mpk): excellent effect of reducing the expression level
expression of Myogenin (Myogenin [4]): excellent effect of inhibiting the decrease of expression
expression level of Myogenin in quadriceps (Myogenin [5]; [6]): increase in the expression levels
expression of Myogenin in quadriceps (Myogenin [5]; G4 to G6, compared to G3 megestrol 125 mpk oral): increasing the expression

From US20240408057A1, “Composition for preventing or treating cachexia and muscle loss” (METAFINES.CO.LTD., priority 2023, published 2024)
